From ChEMBL document CHEMBL1122129, “Estrogenic and antiestrogenic activity of monophenolic analogues of tamoxifen, (Z)-2-[p-(1,2-diphenyl-1-butenyl)phenoxy]-N, N-dimethylethylamine” (J Med Chem, 1982)

Legend:
[1] = molecular target: T1, Estrogen receptor (Rattus norvegicus) (UniProt P06211+Q62986); settings: Uterus
Description: Uterotrophic effect in rats at 50 ug/animal/day hydroxytamoxifen

[2] = molecular target: T1, Estrogen receptor (Rattus norvegicus)
Description: Anti-uterotrophic effect in rats at 50 ug/animal/day in the presence of 0.5 ug estradiol benzoate

Structure (SMILES)	Uterotropic effect [1]	Antiuterotropic effect [2]
CC/C(=C(/c1ccccc1)c1ccc(OCCN(C)C)cc1)c1cccc(O)c1	5.7	19.7
C[C@]12CC[C@@H]3c4ccc(OC(=O)c5ccccc5)cc4CC[C@H]3[C@@H]1CC[C@@H]2O	24	21.6
CC/C(=C(/c1ccccc1)c1ccc(OCCN(C)C)cc1)c1ccc(O)cc1	11	15.7

Second part, the compound after the results:

Uterotropic effect [1]	Antiuterotropic effect [2]	Structure (SMILES)
6.7	16.7	CC/C(=C(/c1ccc(OCCN(C)C)cc1)c1cccc(O)c1)c1ccccc1
10.1	15.7	CC/C(=C(\c1ccccc1)c1ccc(OCCN(C)C)cc1)c1cccc(O)c1
